According to US6867185B2 (Bristol-Myers Squibb Company, priority 2001, dated 2005):

Experiments:
[1] = biological target: T1, HCV NS3/4A protease complex, BMS strain (genotype 1a) (Hepatitis C virus genotype 1a, UniProt P27958, C1454S/C1711G); experiment: Recombinant HCV NS3/4A protease complex FRET peptide assay (BMS strain); type: biochemical; settings: IC50, HCV NS3/4A protease FRET assay in vitro; IC50 ranges
T1 construct: recombinant HCV NS3/4A protease complex (amino'acids 1027 to 1711); inferred from the pET21b vector and Ni-NTA purification; made in house; host or cells: Escherichia coli BL21 (DE3), pET21b
Description: The purpose of this in vitro assay was to measure the inhibition of HCV NS3 protease complexes, derived from the BMS, H77C or J4L6S strains, as described below, by compounds of the present invention. This assay provides an indication of how effective compounds of the present invention would be in inhibiting HCV proteolytic activity.
Serum from an HCV-infected patient was obtained from Dr. T. Wright, San Francisco Hospital. An engineered full-length cDNA (compliment deoxyribonucleic acid) template of the HCV genome (BMS strain) was constructed from DNA fragments obtained by reverse transcription-PCR (RT-PCR) of serum RNA (ribonucleic acid) and using primers selected on the basis of homology between other genotype 1a strains. From the determination of the entire genome sequence, a genotype 1a was assigned to the HCV isolate according to the classification of Simmonds et al. (See P Simmonds, K A Rose, S Graham, S W Chan, F McOmish, B C Dow, E A Follett, P L Yap and H Marsden, J. Clin. Microbiol., 31 (6), 1493-1503 (1993)). […] The infectious clones, H77C (1a genotype) and J4L6S (1b genotype) were obtained from R. Purcell (N1H) and the sequences are published in Genbank (AAB67036, see Yanagi, M., Purcell, R. H., Emerson, S. U. and Bukh, J. Proc. Natl. Acad. Sci. U.S.A. 94 (16), 8738-8743 (1997); AF054247, see Yanagi, M., St Claire, M., Shapiro, M., Emerson, S. U., Purcell, R. H. and Bukh, J, Virology 244 (1), 161-172. (1998)).
The BMS, H77C and J4L6S strains were used for production of recombinant NS3/4A protease complexes. DNA encoding the recombinant HCV NS3/4A protease complex (amino'acids 1027 to 1711) for these strains were manipulated as described by P. Gallinari et al. (see Gallinari P, Paolini C, Brennan D, Nardi C, Steinkuhler C, De Francesco R. Biochemistry. 38 (17):5620-32, (1999)). Briefly, a three-lysine solubilizing tail was added at the 3′-end of the NS4A coding region. The cysteine in the P1 position of the NS4A-NS4B cleavage site (amino acid 1711) was changed to a glycine to avoid the proteolytic cleavage of the lysine tag. Furthermore, a cysteine to serine mutation was introduced by PCR at amino acid position 1454 to prevent the autolytic cleavage in the NS3 helicase domain. The variant DNA fragment was cloned in the pET21b bacterial expression vector (Novagen)and the NS3/4A complex was expressed in Escherichia. coli strain BL21 (DE3) (Invitrogen) following the protocol described by P. Gallinari et al. (see Gallinari P, Brennan D, Nardi C, Brunetti M, Tomei L, Steinkuhler C, De Francesco R., J. Virol. 72 (8):6758-69 (1998)) with modifications. Briefly, NS3/4A expression was induced with 0.5 mM Isopropyl β-D-1-thiogalactopyranoside (IPTG) for 22 hr at 20° C. A typical fermentation (10L) yielded approximately 80 g of wet cell paste. The cells were resuspended in lysis buffer (10 mL/g) consisting of 25 mM N-(2-Hydroxyethyl)Piperazine-N′-(2-Ethane Sulfonic acid) (HEPES), pH 7.5, 20% glycerol, 500 mM Sodium Chloride (NaCl), 0.5% Triton-X100, 1 ug/ml lysozyme, 5 mM Magnesium Chloride (MgCl2), 1 ug/ml Dnasel, 5 mM β-Mercaptoethanol (OME), Protease inhibitor-Ethylenediamine Tetraacetic acid (EDTA) free (Roche), homogenized and incubated for 20 mins at 4° C. The homogenate was sonicated and clarified by ultra-centrifugation at 235000 g for 1 hr at 4° C. Imidazole was added to the supernatant to a final concentration of 15 mM and the pH adjusted to 8.0. The crude protein extract was loaded on a Nickel-Nitrilotriacetic acid (Ni-NTA) column pre-equilibrated with buffer B (25 mM HEPES, pH 8.0, 20% glycerol, 500 mM NaCl, 0.5% Triton-X100, 15 mM imidazole, 5 mM βME). The sample was loaded at a flow rate of 1 mL/min. The column was washed with 15 column volumes of buffer C (same as buffer B except with 0.2% Triton-X100). The protein was eluted with 5 column volumes of buffer D (same as buffer C except with 200 mM Imidazole). […]

[2] = test system: HCV replicon in Huh7 cells; experiment: HCV replicon cell-based assay (replicon FRET assay); parameters: species or system HCV strain 1B; settings: Hepatitis C virus, Huh-7, HCV replicon cell assay; EC50 ranges
Description: An HCV replicon whole cell system was established as described by Lohmann V, Korner F, Koch J, Herian U, Theilmann L, Bartenschlager R., Science 285 (5424):110-3 (1999). This system enabled us to evaluate the effects of our HCV Protease compounds on HCV RNA replication. Briefly, using the HCV strain 1B sequence described in the Lohmann paper (Assession number:AJ238799), an HCV cDNA was generated encoding the 5′ internal ribosome entry site (IRES), the neomycin resistance gene, the EMCV (encephalomyocarditis viurs)-IRES and the HCV nonstructural proteins, NS3-NS5B, and 3′ non-translated region (NTR). In vitro transcripts of the cDNA were transfected into the human hepatoma cell line, Huh7. […] Resulting cell lines were characterized for positive and negative strand RNA production and protein production over time.
Huh7 cells, constitutively expressing the HCV replicon, were grown in Dulbecco's Modified Eagle Media (DMEM) containing 10% Fetal calf serum (FCS) and 1 mg/ml G418 (Gibco-BRL). Cells were seeded the night before (1.5×10^4 cells/well) in 96-well tissue-culture sterile plates. Compound and no compound controls were prepared in DMEM containing 4% FCS, 1:100 Penicillin/Streptomysin, 1:100 L-glutamine and 5% DMSO in the dilution plate (0.5% DMSO final concentration in the assay). Compound/DMSO mixes were added to the cells and incubated for 4 days at 37° C. After 4 days, plates were rinsed thoroughly with Phosphate-Buffered Saline (PBS) (3 times 150 μl). The cells were lysed with 25 μl of a lysis assay reagent containing the FRET peptide (RET S1, as described for the in vitro enzyme assay). The lysis assay reagent was made from 5× cell Luciferase cell culture lysis reagent(Promega #E153A) diluted to 1× with distilled water, NaCl added to 150 mM final, the FRET peptide diluted to 10 μM final from a 2 mM stock in 100% DMSO. The plate was then placed into the Cytofluor 4000 instrument which had been set to 340 nm excitation/490 emission, automatic mode for 21 cycles and the plate read in a kinetic mode. EC50 determinations were carried out as described for the IC50 determinations.

T1 sequence (P27958 1027-1711 C1454S/C1711G, one chain of several): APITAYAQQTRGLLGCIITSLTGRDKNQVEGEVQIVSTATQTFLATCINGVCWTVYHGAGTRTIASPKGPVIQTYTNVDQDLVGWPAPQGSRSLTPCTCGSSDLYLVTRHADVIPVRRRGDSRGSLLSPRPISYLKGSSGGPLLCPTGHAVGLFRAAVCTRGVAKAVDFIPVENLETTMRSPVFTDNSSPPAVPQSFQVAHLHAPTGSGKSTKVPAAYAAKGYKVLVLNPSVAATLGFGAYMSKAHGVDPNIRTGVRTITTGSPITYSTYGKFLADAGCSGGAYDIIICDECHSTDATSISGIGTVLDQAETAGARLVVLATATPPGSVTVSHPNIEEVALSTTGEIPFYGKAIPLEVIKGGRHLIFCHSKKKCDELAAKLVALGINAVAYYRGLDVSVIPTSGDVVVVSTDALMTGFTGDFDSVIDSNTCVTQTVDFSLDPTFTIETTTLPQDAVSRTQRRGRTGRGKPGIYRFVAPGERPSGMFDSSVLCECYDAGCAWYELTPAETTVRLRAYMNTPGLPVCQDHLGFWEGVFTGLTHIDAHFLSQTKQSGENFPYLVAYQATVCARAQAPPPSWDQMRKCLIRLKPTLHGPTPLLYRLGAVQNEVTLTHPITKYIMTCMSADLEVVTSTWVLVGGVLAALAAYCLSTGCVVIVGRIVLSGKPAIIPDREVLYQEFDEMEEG

SMILES	IC50 [1] [nM]	EC50 [2] [nM]
COc1ccc2c(O[C@@H]3C[C@H]4C(=O)N[C@]5(C(=O)NS(=O)(=O)C6CC6)C[C@H]5CCCCCCC[C@H](NC(=O)OCC(C)(C)C)C(=O)N4C3)cc(-c3ccccc3)nc2c1 [Compound 22, (1S,4R,6R,14S,18R)-[4-Cyclopropanesulfonylaminocarbonyl-18-(7-methoxy-2-phenylquinolin-4-yloxy)-2,15-dioxo-3,16-diazatricyclo[14.3.0.0^4,6]-nonadec-14-yl]carbamic acid 2,2-dimethylpropyl ester]	< 50	< 50
COc1ccc2c(O[C@@H]3C[C@H]4C(=O)N[C@]5(C(=O)NS(=O)(=O)C6CC6)CC5CCCCCCC[C@H](NC(=O)OC5CCOCC5)C(=O)N4C3)cc(-c3ccccc3)nc2c1 (stereo partly drawn) [Compound 23, (1S,4R,6R,14S,18R)-[4-Cyclopropanesulfonyl-aminocarbonyl-18-(7-methoxy-2-phenylquinolin-4-yloxy)-2,15-dioxo-3,16-diazatricyclo[14.3.0.0^4,6]nonadec-14-yl]carbamic acid tetrahydro[4H]pyran-4-yl ester]	< 50	< 50
COc1ccc2c(O[C@@H]3C[C@H]4C(=O)N[C@]5(C(=O)NS(=O)(=O)C6CC6)CC5CCCCCC[C@H](NC(=O)CC5CC5)C(=O)N4C3)cc(-c3ccccc3)nc2c1 (stereo partly drawn) [Compound 24, (1S,4R,6R,14S,17R)-N-[4-Cyclopropanesulfonylaminocarbonyl-17-(7-methoxy-2-phenylquinolin-4-yloxy)-2,14-dioxo-3,15-diazatricyclo[13.3.0.0^4,6]-octadec-13-yl]-2-cyclopropylacetamide]	< 50	< 50
COc1ccc2c(O[C@@H]3C[C@H]4C(=O)N[C@]5(C(=O)NS(=O)(=O)C6CC6)CC5CCCCCC[C@H](NC(=O)OC5CCCC5)C(=O)N4C3)cc(-c3ccccc3)nc2c1 (stereo partly drawn) [Compound 25, (1S,4R,6R,14S,17R)-[4-Cyclopropanesulfonylaminocarbonyl-17-(7-methoxy-2-phenylquinolin-4-yloxy)-2,14-dioxo-3,15-diazatricyclo[13.3.0.0^4,6]octa-dec-13-yl]carbamic acid cyclopentyl ester]	< 50	< 50
COc1ccc2c(O[C@@H]3C[C@H]4C(=O)N[C@]5(C(=O)NS(=O)(=O)C6CC6)CC5CCCCCC[C@H](NC(=O)O[C@H]5CCOC5)C(=O)N4C3)cc(-c3ccccc3)nc2c1 (stereo partly drawn) [Compound 26, (1S,4R,6R,14S,17R,3′S)-[4-Cyclopropanesulfonyl-aminocarbonyl-17-(7-methoxy-2-phenylquinolin-4-yloxy)-2,14-dioxo-3,15-diazatricyclo[13.3.0.0^4,6]-octadec-13-yl]-carbamic acid tetrahydrofuran-3′-yl ester]	< 50	< 50
COc1ccc2c(O[C@@H]3C[C@H]4C(=O)N[C@]5(C(=O)NS(=O)(=O)C6CC6)C[C@H]5/C=C\CCCCC[C@H](NC(=O)OC(C)(C)C)C(=O)N4C3)cc(-c3csc(C(C)C)n3)nc2c1 [Compound 27]	< 50	< 50
COc1ccc2c(O[C@@H]3C[C@H]4C(=O)N[C@]5(C(=O)NS(=O)(=O)C6CC6)C[C@H]5/C=C\CCCCC[C@H](NC(=O)OC(C)(C)C)C(=O)N4C3)cc(-c3csc(NC(C)=O)n3)nc2c1 [Compound 28, (1S,4R,6S,14S,18R)-7-cis-{18-[2-(2-Acetylaminothiazol-4-yl)-7-methoxyquinolin-4-yloxy]-4-cyclopropanesulfonylaminocarbonyl-2,15-dioxo-3,16-diazatricyclo-[14.3.0.0^4,6]nonadec-7-en-14-yl}carbamic acid tert-butyl ester]	< 50	< 50
CC(C)(C)OC(=O)N[C@H]1CCCCC/C=C\[C@@H]2C[C@@]2(C(=O)NS(=O)(=O)C2CC2)NC(=O)[C@@H]2C[C@@H](Oc3ccnc4ccccc34)CN2C1=O [Compound 29, (1S,4R,6S,14S,18R)-7-cis-[4-Cyclopropanesulfonylaminocarbonyl-2,15-dioxo-18-(quinolin-4-yloxy)-3,16-diazatricyclo[14.3.0.0^4,6]nonadec-7-en-14-yl]carbamic acid tert-butyl ester]	< 50	< 50
CC(C)(C)OC(=O)N[C@H]1CCCCC/C=C\[C@@H]2C[C@@]2(C(=O)NS(C)(=O)=O)NC(=O)[C@@H]2C[C@@H](Oc3ccnc4ccccc34)CN2C1=O [Compound 30, (1S,4R,6S,14S,18R)-7-cis-[4-Methanesulfonylaminocarbonyl-2,15-dioxo-18-(quinolin-4-yloxy)-3,16-diazatricyclo[14.3.0.0^4,6]nonadec-7-en-14-yl]-carbamic acid tert-butyl ester]	< 50	< 5000
COc1ccc2c(O[C@@H]3C[C@H]4C(=O)N[C@]5(C(=O)NS(=O)(=O)C6CC6)CC5/C=C\CCCSC[C@H](NC(=O)OC(C)(C)C)C(=O)N4C3)cc(-c3ccccc3)nc2c1 (stereo partly drawn) [Compound 31, (1S,4R,6S,14S,18R)-7-cis-[4-Cyclopropanesulfonylaminocarbonyl-18-(7-methoxy-2-phenyl-quinolin-4-yloxy)-2,15-dioxo-12-thia-3,16-diazatricyclo[14.3.0.0^4,6]nonadec-7-en-14-yl]-carbamic acid tert-butyl ester]	< 50	< 50
